In PubChem BioAssay (NCI):
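1) Cells in 96-well plates. 2) Compound, 48 h, 5 concentrations. 3) Linear interpolation between surrounding doses. 4) Unreached endpoint = highest concentration. GI50: concentration for 50% inhibition of growth. TGI: concentration producing complete growth inhibition.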

How the values were obtained:
Test in all cases: DTP human tumour cell line panel, 48 h
[1] = test system: 786-0 renal
[2] = test system: A498 renal
[3] = test system: A549 NSCLC
[4] = test system: ACHN renal
[5] = test system: BT-549 breast
[6] = test system: CAKI-1 renal
[7] = test system: CCRF-CEM leukemia
[8] = test system: COLO 205 colon
[9] = test system: DU-145 prostate
[10] = test system: EKVX NSCLC
[11] = test system: HCC-2998 colon
[12] = test system: HCT-116 colon
[13] = test system: HCT-15 colon
[14] = test system: HL-60(TB) leukemia
[15] = test system: HOP-62 NSCLC
[16] = test system: HOP-92 NSCLC
[17] = test system: HS 578T breast
[18] = test system: HT29 colon
[19] = test system: IGROV1 ovarian
[20] = test system: K-562 leukemia
[21] = test system: KM12 colon
[22] = test system: LOX IMVI melanoma
[23] = test system: M14 melanoma
[24] = test system: MALME-3M melanoma
[25] = test system: MCF7 breast
[26] = test system: MDA-MB-231 breast
[27] = test system: MDA-MB-435
[28] = test system: MOLT-4 leukemia
[29] = test system: NCI-H226 lung
[30] = test system: NCI-H23 lung
[31] = test system: NCI-H460 lung
[32] = test system: NCI-H522 lung
[33] = test system: NCI/ADR-RES ovarian
[34] = test system: OVCAR-3 ovarian
[35] = test system: OVCAR-4 ovarian
[36] = test system: OVCAR-5 ovarian
[37] = test system: OVCAR-8 ovarian
[38] = test system: PC-3 prostate
[39] = test system: RPMI-8226 leukemia
[40] = test system: RXF 393 renal
[41] = test system: SF-268 CNS
[42] = test system: SF-295 CNS
[43] = test system: SF-539 CNS
[44] = test system: SK-MEL-2 melanoma
[45] = test system: SK-MEL-28 melanoma
[46] = test system: SK-MEL-5 melanoma
[47] = test system: SN12C renal
[48] = test system: SNB-19 CNS
[49] = test system: SNB-75 CNS
[50] = test system: SW-620 colon
[51] = test system: T-47D breast
[52] = test system: TK-10 renal
[53] = test system: U251 CNS
[54] = test system: UACC-257 melanoma
[55] = test system: UACC-62 melanoma
[56] = test system: UO-31 renal
[57] = test system: SK-OV-3 ovarian
[58] = test system: SR leukemia

Work on CC(C)(/C=C(\C#N)C(=O)N1CCC[C@@H](n2nc(-c3ccc(Oc4ccccc4)cc3F)c3c(N)ncnc32)C1)N1CCN(C2COC2)CC1 yielded a GI50 [1] of 4.12 µM, a TGI [1] of 18.9 µM and a GI50 [2] of 1.78 µM. It also gave a TGI [2] of 6.25 µM, a GI50 [3] of 6.57 µM and a TGI [3] of 25.1 µM. It also gave a GI50 [4] of 4.53 µM, a TGI [4] of 17.1 µM and a GI50 [5] of 5.42 µM. For the same compound, the TGI [5] was 18.6 µM, the GI50 [6] was 6.39 µM and the TGI [6] was 18.8 µM. It also gave a GI50 [7] of 5.69 µM, a TGI [7] of over 100 µM and a GI50 [8] of 5.71 µM. It also gave a TGI [8] of 24.3 µM, a GI50 [9] of 12.3 µM and a TGI [9] of 26.8 µM. The GI50 [10] was 6.03 µM, the TGI [10] was 19.2 µM and the GI50 [11] was 15.4 µM. For the same compound, the TGI [11] was 31.5 µM, the GI50 [12] was 6.31 µM and the TGI [12] was 20.1 µM. For the same compound, the GI50 [13] was 6.11 µM, the TGI [13] was 21 µM and the GI50 [14] was 5.28 µM. For the same compound, the TGI [14] was 32.5 µM, the GI50 [15] was 10.1 µM and the TGI [15] was 25.7 µM. The GI50 [16] was 2.8 µM, the TGI [16] was 11.1 µM and the GI50 [17] was 4.67 µM. For the same compound, the TGI [17] was 23.8 µM, the GI50 [18] was 4.69 µM and the TGI [18] was 23.6 µM. The GI50 [19] was 4.3 µM, the TGI [19] was 16.6 µM and the GI50 [20] was 7.49 µM. It also gave a TGI [20] of over 100 µM, a GI50 [21] of 3.34 µM and a TGI [21] of 14 µM. The GI50 [22] was 3.37 µM, the TGI [22] was 15.2 µM and the GI50 [23] was 4.82 µM. For the same compound, the TGI [23] was 18.8 µM, the GI50 [24] was 6.07 µM and the TGI [24] was 19.5 µM. For the same compound, the GI50 [25] was 2.57 µM, the TGI [25] was 12.8 µM and the GI50 [26] was 10.2 µM. It also gave a TGI [26] of 27.7 µM, a GI50 [27] of 4.81 µM and a TGI [27] of 17.3 µM. It also gave a GI50 [28] of 2.94 µM, a TGI [28] of 13.7 µM and a GI50 [29] of 4.3 µM. The TGI [29] was 21.1 µM, the GI50 [30] was 11 µM and the TGI [30] was 30.9 µM. For the same compound, the GI50 [31] was 6.3 µM, the TGI [31] was 20.8 µM and the GI50 [32] was 2.8 µM. The TGI [32] was 17.7 µM, the GI50 [33] was 14.7 µM and the TGI [33] was 43.7 µM. The GI50 [34] was 10.5 µM, the TGI [34] was 23.2 µM and the GI50 [35] was 5.69 µM. The TGI [35] was 20.4 µM, the GI50 [36] was 11.3 µM and the TGI [36] was 24.1 µM. For the same compound, the GI50 [37] was 10.8 µM, the TGI [37] was 34.3 µM and the GI50 [38] was 10.6 µM. For the same compound, the TGI [38] was 27.6 µM, the GI50 [39] was 4.41 µM and the TGI [39] was 33.1 µM. It also gave a GI50 [40] of 2.31 µM, a TGI [40] of 7.66 µM and a GI50 [41] of 5.37 µM. It also gave a TGI [41] of 21.8 µM, a GI50 [42] of 6.39 µM and a TGI [42] of 19.6 µM. For the same compound, the GI50 [43] was 5.95 µM, the TGI [43] was 19 µM and the GI50 [44] was 10.1 µM. For the same compound, the TGI [44] was 26.2 µM, the GI50 [45] was 9.71 µM and the TGI [45] was 22 µM. For the same compound, the GI50 [46] was 3.96 µM, the TGI [46] was 13.9 µM and the GI50 [47] was 4.3 µM. The TGI [47] was 16.2 µM, the GI50 [48] was 8.09 µM and the TGI [48] was 20.6 µM. It also gave a GI50 [49] of 5.98 µM, a TGI [49] of 20.7 µM and a GI50 [50] of 12.4 µM. The TGI [50] was 31.3 µM, the GI50 [51] was 4.77 µM and the TGI [51] was 29.5 µM. The GI50 [52] was 4.12 µM, the TGI [52] was 15.9 µM and the GI50 [53] was 7.35 µM. For the same compound, the TGI [53] was 25.8 µM, the GI50 [54] was 5.58 µM and the TGI [54] was 20.4 µM. It also gave a GI50 [55] of 3.04 µM, a TGI [55] of 14.3 µM and a GI50 [56] of 2.82 µM. For the same compound, the TGI [56] was 10.6 µM.

CC1(C)OC2C(CO[Si](C)(C)C(C)(C)C)OC(n3c(I)c(C#C[Si](C)(C)C)c(=O)[nH]c3=O)C2O1 (stereo unspecified) gave a GI50 [1] of 13.1 µM, a TGI [1] of 26.8 µM and a GI50 [2] of 32.2 µM. For the same compound, the TGI [2] was over 100 µM, the GI50 [3] was over 100 µM and the TGI [3] was over 100 µM. It also gave a GI50 [4] of 12.9 µM, a TGI [4] of 26.4 µM and a GI50 [5] of 13.2 µM. For the same compound, the TGI [5] was 32.1 µM, the GI50 [7] was 2.67 µM and the TGI [7] was 11 µM. The GI50 [8] was 1.59 µM, the TGI [8] was 2.94 µM and the GI50 [9] was 13 µM. The TGI [9] was 25.6 µM, the GI50 [10] was 59.6 µM and the TGI [10] was over 100 µM. It also gave a GI50 [11] of 4.52 µM, a TGI [11] of 17.7 µM and a GI50 [12] of 1.66 µM. For the same compound, the TGI [12] was 3.37 µM, the GI50 [13] was 2.39 µM and the TGI [13] was 15.4 µM. It also gave a GI50 [14] of 2.35 µM, a TGI [14] of 15.2 µM and a GI50 [15] of over 100 µM. It also gave a TGI [15] of over 100 µM, a GI50 [16] of 0.0445 µM and a TGI [16] of 14.1 µM. It also gave a GI50 [17] of 16.8 µM, a TGI [17] of 51.1 µM and a GI50 [18] of 5.01 µM. The TGI [18] was 23.7 µM, the GI50 [19] was 7.87 µM and the TGI [19] was 21.5 µM. For the same compound, the GI50 [20] was 1.61 µM, the TGI [20] was 3.89 µM and the GI50 [21] was 23.2 µM. The TGI [21] was 92.7 µM, the GI50 [22] was 3.01 µM and the TGI [22] was 11.1 µM. For the same compound, the GI50 [23] was 13.4 µM, the TGI [23] was 28.1 µM and the GI50 [24] was 4.62 µM. It also gave a TGI [24] of 18.6 µM, a GI50 [25] of 11.2 µM and a TGI [25] of 24.3 µM. It also gave a GI50 [26] of 4.22 µM, a TGI [26] of 17 µM and a GI50 [27] of 15.7 µM. It also gave a TGI [27] of 44.3 µM, a GI50 [28] of 1.47 µM and a TGI [28] of 3.54 µM. It also gave a GI50 [29] of 17 µM, a TGI [29] of 34 µM and a GI50 [30] of 18.2 µM. It also gave a TGI [30] of 50.9 µM, a GI50 [31] of 16.8 µM and a TGI [31] of 34.2 µM. For the same compound, the GI50 [32] was 1.38 µM, the TGI [32] was 2.74 µM and the GI50 [33] was 20.4 µM. The TGI [33] was 58.3 µM, the GI50 [34] was 1.81 µM and the TGI [34] was 3.54 µM. The GI50 [35] was 16.1 µM, the TGI [35] was 31.8 µM and the GI50 [36] was 18.7 µM. For the same compound, the TGI [36] was 42.8 µM, the GI50 [37] was 12.5 µM and the TGI [37] was 45.8 µM. The GI50 [38] was 2.04 µM, the TGI [38] was 4.13 µM and the GI50 [39] was 2.4 µM. The TGI [39] was 8.6 µM, the GI50 [40] was 2.51 µM and the TGI [40] was 9.1 µM. For the same compound, the GI50 [41] was 11.4 µM, the TGI [41] was 28.2 µM and the GI50 [42] was over 100 µM. It also gave a TGI [42] of over 100 µM, a GI50 [43] of 15.4 µM and a TGI [43] of 28.9 µM. For the same compound, the GI50 [44] was 3.78 µM, the TGI [44] was 16.7 µM and the GI50 [45] was 1.83 µM. The TGI [45] was 3.56 µM, the GI50 [46] was 13.4 µM and the TGI [46] was 26.2 µM. The GI50 [57] was over 100 µM, the TGI [57] was over 100 µM and the GI50 [47] was 15.1 µM. It also gave a TGI [47] of 37.5 µM, a GI50 [48] of over 100 µM and a TGI [48] of over 100 µM. For the same compound, the GI50 [49] was 36.7 µM, the TGI [49] was over 100 µM and the GI50 [58] was 1.42 µM. The TGI [58] was 4.3 µM, the GI50 [50] was 1.69 µM and the TGI [50] was 3.21 µM. For the same compound, the GI50 [51] was 10.5 µM, the TGI [51] was 26.4 µM and the GI50 [52] was 6.44 µM. For the same compound, the TGI [52] was 20 µM, the GI50 [53] was 19.4 µM and the TGI [53] was 65.7 µM. It also gave a GI50 [54] of 13.3 µM, a TGI [54] of 30.1 µM and a GI50 [55] of 21.5 µM. It also gave a TGI [55] of 50.5 µM, a GI50 [56] of 2.63 µM and a TGI [56] of 10.4 µM.
